Where a name gives a salt, the structure may show the parent alone.
Columns and labels:
TBK1 = biological target: T1, TBK1 (Homo sapiens, UniProt Q9UHD2); assay: TBK Biochemical Assay; conditions: read-out: TBK1 IC50
T1 sequence (Q9UHD2 1-729): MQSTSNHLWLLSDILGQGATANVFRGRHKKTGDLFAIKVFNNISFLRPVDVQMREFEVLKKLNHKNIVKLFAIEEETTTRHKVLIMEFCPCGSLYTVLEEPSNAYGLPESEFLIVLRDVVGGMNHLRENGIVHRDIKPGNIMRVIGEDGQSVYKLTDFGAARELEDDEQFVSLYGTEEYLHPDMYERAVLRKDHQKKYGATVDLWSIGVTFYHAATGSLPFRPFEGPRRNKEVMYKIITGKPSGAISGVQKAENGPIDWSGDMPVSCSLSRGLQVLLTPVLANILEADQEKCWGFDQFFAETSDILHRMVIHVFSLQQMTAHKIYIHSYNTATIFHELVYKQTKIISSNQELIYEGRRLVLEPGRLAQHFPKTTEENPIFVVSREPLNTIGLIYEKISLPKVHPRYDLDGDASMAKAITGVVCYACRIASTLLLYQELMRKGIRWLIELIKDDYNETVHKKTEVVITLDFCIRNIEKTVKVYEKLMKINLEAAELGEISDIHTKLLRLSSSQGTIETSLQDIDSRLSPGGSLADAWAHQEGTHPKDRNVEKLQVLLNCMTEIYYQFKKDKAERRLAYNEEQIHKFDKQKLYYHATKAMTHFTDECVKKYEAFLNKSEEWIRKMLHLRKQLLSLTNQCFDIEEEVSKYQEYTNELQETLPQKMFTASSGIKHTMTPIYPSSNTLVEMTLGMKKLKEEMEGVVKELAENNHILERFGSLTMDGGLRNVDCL
Experimental: Example 482: TBK Biochemical Assay
(§1) Test compounds were transferred into Labcyte polypropylene 384 well plates (P055-25) and diluted to 3 mM using DMSO. 3 mM test compounds were dispensed using Labcyte ECHO dose response module into Greiner 784075 plates (columns 3-12 and 13-22, 10 point 1:4) so that high concentration was 30 uM final. 100 uM of a reference compound (1 uM final high concentration). Backfilling was performed if necessary so that all wells contain 1% DMSO final: […]
(§2) add 75 nl DMSO/well into columns 1, 2 and 24 using Labcyte Echo. add 75 nl 1.0 mM staurosporine/well into column 23 using Labcyte Echo ([…]) add 4.5 ul enzyme/well using multidrop dispenser add 3 ul substrate/well using multidrop dispenser incubate at 25° C. in Heidolph incubator for 90 min. add 7.5 ul 2× stop buffer using multidrop dispenser read on labchip ez reader II using TBK1.job
(§3) Raw data files were opened in the Caliper LabChip Reviewer program (Version 3.0.265.0 SP2) and peak assignments were adjusted to reflect “substrate first” with the software's post-run analysis options. A spline-fit baseline was applied using the software's analysis algorithm.

IKKε = biological target: T2, IKKε (Homo sapiens, UniProt Q14164); assay: IKKe Biochemical Assay; conditions: read-out: IKKε IC50
T2 sequence (Q14164 1-716): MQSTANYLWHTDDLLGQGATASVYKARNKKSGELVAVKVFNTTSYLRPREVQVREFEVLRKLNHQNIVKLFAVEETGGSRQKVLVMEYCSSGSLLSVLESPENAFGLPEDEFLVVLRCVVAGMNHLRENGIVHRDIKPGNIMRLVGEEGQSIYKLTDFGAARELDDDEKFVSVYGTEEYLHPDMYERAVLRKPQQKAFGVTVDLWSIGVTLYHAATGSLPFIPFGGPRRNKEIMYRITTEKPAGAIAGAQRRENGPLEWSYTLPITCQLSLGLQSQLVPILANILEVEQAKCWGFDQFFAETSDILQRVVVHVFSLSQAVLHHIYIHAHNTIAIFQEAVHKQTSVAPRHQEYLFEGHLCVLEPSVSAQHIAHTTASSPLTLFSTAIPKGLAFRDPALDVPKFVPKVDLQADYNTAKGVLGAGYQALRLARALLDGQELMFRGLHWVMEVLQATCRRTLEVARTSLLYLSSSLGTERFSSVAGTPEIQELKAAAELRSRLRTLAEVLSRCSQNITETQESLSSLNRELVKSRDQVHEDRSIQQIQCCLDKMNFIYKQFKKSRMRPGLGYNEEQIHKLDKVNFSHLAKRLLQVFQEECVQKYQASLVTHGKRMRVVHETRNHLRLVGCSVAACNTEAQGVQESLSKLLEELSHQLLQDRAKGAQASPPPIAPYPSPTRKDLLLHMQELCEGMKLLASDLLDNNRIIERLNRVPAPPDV
Experimental: as §1, with “(Greiner” for “Greiner”
as §2, with “C.” for “C. in Heidolph incubator”, “buffer” for “buffer using multidrop dispenser”, “IKKε. job” for “TBK1.job”
as §3

Q: How did the IC50 (TBK1) turn out when `CN(C)C(=O)c1ccc(-c2cc3ncc(C4CC4)c(-c4ccc(OC5CCOCC5)c(C#N)c4)c3o2)c(F)c1` [Compound 310, 4-[7-[3-cyano-4-(oxan-4-yloxy)phenyl]-6-cyclopropylfuro[3,2-b]pyridin-2-yl]-3-fluoro-N,N-dimethylbenzamide] was run?
A: Its IC50 is greater than 5 µM.

Q: Which IC50 (TBK1) does the source give for `CN(C)C(=O)c1ccc(-c2cc3nccc(-c4cc(F)c(OC5CCOC6(CC6)C5)c(C#N)c4)c3o2)cc1` (stereo not drawn) [Compound 288, 4-[7-(3-cyano-5-fluoro-4-[4-oxaspiro[2.5]octan-7-yloxy]phenyl)furo[3,2-b]pyridin-2-yl]-N,N-dimethylbenzamide hydrochloride] here?
A: Its IC50 is greater than 5 µM.

Q: For `CN(C)C(=O)c1cnc(-c2cc3nccc(-c4cc(F)c(NC5CCOCC5)c(C#N)c4)c3o2)c(F)c1` [Compound 248, 6-(7-(3-cyano-5-fluoro-4-(tetrahydro-2H-pyran-4-ylamino)phenyl)furo[3,2-b]pyridin-2-yl)-5-fluoro-N,N-dimethylnicotinamide], which IC50 (IKKε) is on record?
A: The IC50 was 0.1 to 1 µM.

Q: How did the IC50 (TBK1) turn out when `COc1cc(C(=O)N(C)C)cnc1-c1cc2ncc(C(C)C)c(-c3ccc(OC4CCOCC4)c(C#N)n3)c2o1` [Compound 331, 6-[7-[6-cyano-5-(oxan-4-yloxy)pyridin-2-yl]-6-(propan-2-yl)furo[3,2-b]pyridin-2-yl]-5-methoxy-N,N-dimethylpyridine-3-carboxamide hydrochloride] was run?
A: Its IC50 is greater than 5 µM.

Q: Which IC50 (TBK1) does the source give for `COc1ccc(C#N)cc1-c1ccnc2cc(-c3ncc(C(=O)N(C)C)cc3OC)oc12` [Compound 490, 6-{7-[5-Cyano-2-methoxy-phenyl)-furo[3,2-b]pyridin-2-yl}-5-methoxy-N,N-dimethyl-nicotinamide] here?
A: Its IC50 is greater than 5 µM.

Q: How did the IC50 (TBK1) turn out when `COc1cc(C(=O)N(C)C)cnc1-c1cc2ncc(Cl)c(-c3ccc(NC4CCOCC4)c(C#N)c3)c2o1` [Compound 337, 6-(6-chloro-7-[3-cyano-4-[(oxan-4-yl)amino]phenyl]furo[3,2-b]pyridin-2-yl)-5-methoxy-N,N-dimethylpyridine-3-carboxamide] was run?
A: Its IC50 is greater than 5 µM.

Q: `CN(C)C(=O)c1ccc(-c2cc3nccc(-c4ccc(Oc5ccncc5)c(C#N)c4)c3o2)cc1` [Compound 200, 4-{7-[3-Cyano-4-(pyridin-4-yloxy)-phenyl]-furo[3,2-b]pyridin-2-yl}-N,N-dimethyl-benzamide] was tested. Which IC50 (IKKε) did it give?
A: The IC50 was greater than 5 µM.

Q: Which IC50 (TBK1) does the source give for `COc1cc(C(=O)N(C)C)cnc1-c1cc2ncc(C(C)C)c(-c3ccc(OC4CCOCC4)c(C#N)c3)c2o1` [Compound 332, 6-[7-[3-cyano-4-(oxan-4-yloxy)phenyl]-6-(propan-2-yl)furo[3,2-b]pyridin-2-yl]-5-methoxy-N,N-dimethylpyridine-3-carboxamide] here?
A: Its IC50 is greater than 5 µM.

Q: With `COC(=O)c1ccc(-c2cc3nccc(-c4ccc(Oc5ccccc5F)c(C#N)c4)c3o2)cc1` [Compound 205] as the molecule, how does the IC50 (IKKε) read?
A: The IC50 was greater than 5 µM.

Q: Which IC50 (IKKε) does the source give for `COc1cc(C(=O)N(C)C)ccc1-c1cc2nccc(-c3ccc(OC4CCOCC4OCc4ccccc4)c(C#N)c3)c2o1` (stereo not drawn) [Compound 211] here?
A: The IC50 was 0.1 to 1 µM.

Q: How did the IC50 (TBK1) turn out when `COc1cc(C(=O)N(C)C)cnc1-c1cc2ncc(C(C)C)c(-c3ccc(NC4CCOCC4)c(C#N)c3)c2o1` [Compound 335, 6-(7-[3-cyano-4-[(oxan-4-yl)amino]phenyl]-6-(propan-2-yl)furo[3,2-b]pyridin-2-yl)-5-methoxy-N,N-dimethylpyridine-3-carboxamide hydrochloride] was run?
A: Its IC50 is greater than 5 µM.

Q: With `CC1COCC(C)C1Oc1c(F)cc(-c2ccnc3cc(-c4ccc(C(=O)N(C)C)cc4)oc23)cc1C#N` (stereo not drawn) [Compound 289, 4-(7-[3-cyano-4-[(3,5-dimethyloxan-4-yl)oxy]-5-fluorophenyl]furo[3,2-b]pyridin-2-yl)-N,N-dimethylbenzamide] as the molecule, how does the IC50 (TBK1) read?
A: Its IC50 is greater than 5 µM.

Q: `CN(CCO)C(=O)c1ccc(-c2cc3ncc(C4CC4)c(-c4ccc(OC5CCOCC5)c(C#N)c4)c3o2)c(F)c1` [Compound 312, 4-(7-(3-cyano-4-(tetrahydro-2H-pyran-4-yloxy)phenyl)-6-cyclopropylfuro[3,2-b]pyridin-2-yl)-3-fluoro-N-(2-hydroxyethyl)-N-methylbenzamide] was tested. Which IC50 (TBK1) did it give?
A: The IC50 was greater than 5 µM.

Q: `CN(C)C(=O)c1ccc(-c2cc3ncc(C4CC4)c(-c4ccc(NC5CCOCC5)c(C#N)c4)c3o2)c(F)c1` [Compound 309, 4-(7-[3-cyano-4-[(oxan-4-yl)amino]phenyl]-6-cyclopropylfuro[3,2-b]pyridin-2-yl)-3-fluoro-N,N-dimethylbenzamide] was tested. Which IC50 (TBK1) did it give?
A: Its IC50 is greater than 5 µM.

Q: Which IC50 (TBK1) does the source give for `COc1cc(C(=O)N(C)C)cnc1-c1cc2ncc(C3CC3)c(-c3ccc(NC4CCOCC4)c(C#N)c3)c2o1` [Compound 522, 6-(7-[3-cyano-4-[(oxan-4-yl)amino]phenyl]-6-cyclopropylfuro[3,2-b]pyridin-2-yl)-5-methoxy-N,N-dimethylpyridine-3-carboxamide] here?
A: The IC50 was greater than 5 µM.

Q: Which IC50 (TBK1) does the source give for `COc1cc(C(=O)N(C)C)ccc1-c1cc2nccc(-c3cc(F)c(OC4CCOC5(CC5)C4)c(C#N)c3)c2o1` (stereo not drawn) [Compound 293, 4-[7-(3-cyano-5-fluoro-4-[4-oxaspiro[2.5]octan-7-yloxy]phenyl)furo[3,2-b]pyridin-2-yl]-3-methoxy-N,N-dimethylbenzamide] here?
A: Its IC50 is greater than 5 µM.

Q: Which IC50 (TBK1) does the source give for `COc1cc(C(=O)N(C)CCO)cnc1-c1cc2ncc(C(C)C)c(-c3ccc(OC4CCOCC4)c(C#N)n3)c2o1` [Compound 359, 6-[7-[6-cyano-5-(oxan-4-yloxy)pyridin-2-yl]-6-(propan-2-yl)furo[3,2-b]pyridin-2-yl]-N-(2-hydroxyethyl)-5-methoxy-N-methylpyridine-3-carboxamide hydrochloride] here?
A: The IC50 was greater than 5 µM.

Q: For `COc1cc(C(=O)N(C)C)cnc1-c1cc2ncc(C3CC3)c(-c3ccc(NC4CCOCC4)c(C#N)n3)c2o1` [Compound 353, 6-(7-[6-cyano-5-[(oxan-4-yl)amino]pyridin-2-yl]-6-cyclopropylfuro[3,2-b]pyridin-2-yl)-5-methoxy-N,N-dimethylpyridine-3-carboxamide hydrochloride], which IC50 (TBK1) is on record?
A: Its IC50 is greater than 5 µM.

Q: Which IC50 (TBK1) does the source give for `COc1cc(C(=O)N(C)C)ccc1-c1cc2nccc(-c3cc(F)c(OC4C(C)COCC4C)c(C#N)c3)c2o1` (stereo not drawn) [Compound 294, 4-(7-[3-cyano-4-[(3,5-dimethyloxan-4-yl)oxy]-5-fluorophenyl]furo[3,2-b]pyridin-2-yl)-3-methoxy-N,N-dimethylbenzamide] here?
A: The IC50 was greater than 5 µM.

Q: For `COc1cc(C(=O)N(C)C)cnc1-c1cc2ncc(C(C)C)c(-c3ccc(NC4CCOCC4)c(C#N)n3)c2o1` [Compound 361, 6-(7-[6-cyano-5-[(oxan-4-yl)amino]pyridin-2-yl]-6-(propan-2-yl)furo[3,2-b]pyridin-2-yl)-5-methoxy-N,N-dimethylpyridine-3-carboxamide], which IC50 (TBK1) is on record?
A: Its IC50 is greater than 5 µM.

Q: `CN(CCO)C(=O)c1ccc(-c2cc3ncc(C4CC4)c(-c4ccc(NC5CCOCC5)c(C#N)c4)c3o2)c(F)c1` [Compound 311, 4-(7-(3-cyano-4-(tetrahydro-2H-pyran-4-ylamino)phenyl)-6-cyclopropylfuro[3,2-b]pyridin-2-yl)-3-fluoro-N-(2-hydroxyethyl)-N-methylbenzamide] was tested. Which IC50 (TBK1) did it give?
A: Its IC50 is greater than 5 µM.
